Patent US6440903B1, “Substituted 2,4-diamino-1,3,5-triazines as herbicides” (Bayer Aktiengesellschaft, priority 1996, dated 2002)

Columns and labels:
Assay in all cases: Post-emergence test
Assay type in all cases: in vivo
[1] = system: Maize; conditions: greenhouse, scored after three weeks
Method: (§1) Post-emergence Test Solvent: 5 parts by weight of acetone Emulsifier: 1 part by weight of alkylaryl polyglycol ether To produce a suitable preparation of active compound, 1 part by weight of active compound is mixed with the stated amount of solvent, the stated amount of emulsifier is added and the concentrate is diluted with water to the desired concentration. Test plants which have a height of 5-15 cm are sprayed with the preparation of active compound such that the particular amounts of active compounds desired are applied per unit area. The concentration of the spray liquor is chosen so that the particular amounts of active compound desired are applied in 1000 l of water/ha. After three weeks, the degree of damage to the plants is scored visually in % damage in comparison to the untreated control. The Figures Denote: 0%=no effect (like untreated control) 100%=total destruction

[2] = system: Setaria; conditions: greenhouse, scored after three weeks; for pest or weed control at 1000 g/ha / % damage, Setaria: 1000 g of ai./ha
Method: as §1

[3] = system: Polygonum; conditions: Polygonum, 504 h, greenhouse, 125 g of ai./ha, scored after three weeks, read-out: % damage, Polygonum
Method: as §1

[4] = system: Chenopodium; conditions: Chenopodium, 504 h, greenhouse, 125 g of ai./ha, scored after three weeks, read-out: % damage, Chenopodium
Method: as §1

[5] = system: Viola; conditions: 504 h, greenhouse, 125 g of ai./ha, scored after three weeks, read-out: % damage, Viola
Method: as §1

[6] = system: Datura; conditions: greenhouse, 125 g of ai./ha, scored after three weeks
Method: as §1

[7] = system: Alopecurus; conditions: greenhouse, 1000 g of ai./ha, scored after three weeks
Method: as §1

[8] = system: Amaranthus; conditions: greenhouse, 1000 g of ai./ha, scored after three weeks; for pest or weed control at 1000 g/ha: Amaranthus, 504 h, read-out: % damage, Amaranthus
Method: as §1

[9] = system: Sinapis; conditions: greenhouse, 1000 g of ai./ha, scored after three weeks
Method: as §1

[10] = system: Abutilon; conditions: greenhouse, 1000 g of ai./ha, scored after three weeks
Method: as §1

[11] = system: Avena fatua; conditions: greenhouse, 1000 g of ai./ha, scored after three weeks
Method: as §1

[12] = system: Galium; conditions: greenhouse, 1000 g of ai./ha, scored after three weeks
Method: as §1

[13] = system: Xanthium; conditions: greenhouse, 1000 g of ai./ha, scored after three weeks
Method: as §1

[14] = Setaria, 504 h, read-out: % damage, Setaria

CC(F)c1nc(N)nc(NC(C)c2ccc(Cl)cc2)n1 (stereo not shown) [drawing 105]
% damage, Maize ([1]; 125 g of ai./ha): 20%
pest or weed control at 125 g/ha ([2]; Setaria, 504 h, 125 g of ai./ha, read-out: % damage, Setaria): 80%
pest or weed control at 125 g/ha [3]: 100%
pest or weed control at 125 g/ha [4]: 100%
pest or weed control at 125 g/ha [5]: 100%
% damage, Datura [6]: 100%

CC(Nc1nc(N)nc(Cl)n1)c1ccc(Cl)cc1 (stereo not shown) [drawing 106]
% damage, Alopecurus [7]: 80%
% damage, Maize ([1]; 1000 g of ai./ha): 20%
pest or weed control at 1000 g/ha [2, 14]: 90%
pest or weed control at 1000 g/ha [8]: 100%

CC(Nc1nc(N)nc(Cl)n1)c1ccc(Cl)cc1 (stereo not shown) [drawing 107]
% damage, Alopecurus [7]: 100%
% damage, Sinapis [9]: 100%
% damage, Setaria [2]: 100%
% damage, Amaranthus [8]: 100%
% damage, Abutilon [10]: 100%
% damage, Avena fatua [11]: 100%

CC(Nc1nc(N)nc(Cl)n1)c1ccc(Cl)cc1 (stereo not shown) [drawing 108]
% damage, Alopecurus [7]: 70%
% damage, Sinapis [9]: 100%
% damage, Setaria [2]: 100%
% damage, Amaranthus [8]: 100%
% damage, Abutilon [10]: 100%
% damage, Avena fatua [11]: 80%

CC(Nc1nc(N)nc(C(F)(F)F)n1)c1ccc(Cl)cc1 (stereo not shown) [drawing 109]
% damage, Alopecurus [7]: 100%
% damage, Sinapis [9]: 100%
pest or weed control at 1000 g/ha [2, 14]: 100%
pest or weed control at 1000 g/ha [8]: 100%
% damage, Abutilon [10]: 100%
% damage, Avena fatua [11]: 100%

CC(Nc1nc(N)nc(C(C)(C)F)n1)c1ccc(Cl)cc1 (stereo not shown) [drawing 110]
% damage, Alopecurus [7]: 90%
% damage, Sinapis [9]: 100%
pest or weed control at 1000 g/ha [2, 14]: 100%
pest or weed control at 1000 g/ha [8]: 100%
% damage, Abutilon [10]: 100%
% damage, Avena fatua [11]: 95%

CC(Nc1nc(N)nc(C(F)(F)F)n1)c1ccc(Cl)cc1 (stereo not shown) [drawing 111]
% damage, Sinapis [9]: 100%
% damage, Setaria [2]: 100%
% damage, Galium [12]: 100%
% damage, Amaranthus [8]: 100%
% damage, Xanthium [13]: 100%
% damage, Abutilon [10]: 100%
% damage, Avena fatua [11]: 70%

CC(Nc1nc(N)nc(C(C)(C)F)n1)c1ccc(Cl)cc1 (stereo not shown) [drawing 112]
% damage, Sinapis [9]: 100%
% damage, Setaria [2]: 100%
% damage, Galium [12]: 100%
% damage, Amaranthus [8]: 100%
% damage, Xanthium [13]: 100%
% damage, Abutilon [10]: 100%
% damage, Avena fatua [11]: 100%

COCc1nc(NC(C)=O)nc(NC(C)c2ccc(SC)cc2)n1 (stereo not shown) [drawing 143]
% damage, Sinapis [9]: 100%
% damage, Maize ([1]; 1000 g of ai./ha): 0%
pest or weed control at 1000 g/ha [2, 14]: 100%
pest or weed control at 1000 g/ha [8]: 100%

CCC(Nc1nc(NC(C)=O)nc(C(F)(F)F)n1)c1ccc(Cl)cc1 (stereo not shown) [drawing 144]
% damage, Maize ([1]; 1000 g of ai./ha): 10%
pest or weed control at 1000 g/ha [2, 14]: 100%
pest or weed control at 1000 g/ha [8]: 100%
% damage, Xanthium [13]: 90%
% damage, Abutilon [10]: 100%

CC(=O)Nc1nc(NC(C)c2ccc(Cl)cc2)nc(C(Cl)Cl)n1 (stereo not shown) [drawing 148]
pest or weed control at 1000 g/ha [2, 14]: 100%
% damage, Galium [12]: 70%
pest or weed control at 1000 g/ha [8]: 100%
% damage, Avena fatua [11]: 70%

COc1ccc(C(C)Nc2nc(NC(C)=O)nc(C(F)(F)F)n2)cc1 (stereo not shown) [drawing 149]
% damage, Alopecurus [7]: 100%
pest or weed control at 1000 g/ha [2, 14]: 100%
% damage, Galium [12]: 100%
pest or weed control at 1000 g/ha [8]: 100%
% damage, Xanthium [13]: 100%
% damage, Abutilon [10]: 100%
